Reference: ChEMBL document CHEMBL1201862, “PubChem BioAssay data set” (2004)
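Tested at 5 concentrations; 48 h exposure; 96-well plates; endpoints linearly interpolated, else capped at highest concentration. Here, GI50 denotes the concentration required for 50% inhibition of growth.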 Active and inactive are the calls of the source. Rule as the data show it: active = GI50 up to about 1.1 µM and inactive = higher.

Columns and labels:
Test in all cases: NCI anticancer screen, dose series, 48 h
NCI-H522 = test system: NCI-H522
OVCAR-5 = test system: OVCAR-5
A549 = test system: A549
HOP-92 = test system: HOP-92
HCT-116 = test system: HCT-116
EKVX = test system: EKVX
OVCAR-4 = test system: OVCAR-4
HL-60 = test system: HL-60
U-251 = test system: U-251
OVCAR-8 = test system: OVCAR-8
DMS-114 = test system: DMS-114
HOP-62 = test system: HOP-62
MOLT-4 = test system: MOLT-4
NCI-H23 = test system: NCI-H23
ACHN = test system: ACHN
SK-MEL-2 = test system: SK-MEL-2
SN12C = test system: SN12C
RPMI-8226 = test system: RPMI-8226
SF-539 = test system: SF-539
SNB-19 = test system: SNB-19
UACC-257 = test system: UACC-257
K562 = test system: K562
Malme-3M = test system: Malme-3M
OVCAR-3 = test system: OVCAR-3
KM12 = test system: KM12
SK-MEL-28 = test system: SK-MEL-28
KM-20L2 = test system: KM-20L2
DMS-273 = test system: DMS-273
HOP-18 = test system: HOP-18
COLO 205 = test system: COLO 205
HT-29 = test system: HT-29
SW-620 = test system: SW-620
CAKI-1 = test system: CAKI-1
UO-31 = test system: UO-31
SK-MEL-5 = test system: SK-MEL-5
786-0 = test system: 786-0
LXFL 529 = test system: LXFL 529
DLD-1 = test system: DLD-1
SF-268 = test system: SF-268
M14 = test system: M14
SK-OV-3 = test system: SK-OV-3
RXF 631 = test system: RXF 631
SF-295 = test system: SF-295
NCI-H226 = test system: NCI-H226
SNB-75 = test system: SNB-75
IGROV-1 = test system: IGROV-1
NCI-H460 = test system: NCI-H460
HCT-15 = test system: HCT-15
A498 = test system: A498
SNB-78 = test system: SNB-78
M19-MEL = test system: M19-MEL
RXF 393 = test system: RXF 393
UACC-62 = test system: UACC-62
HCC 2998 = test system: HCC 2998
CCRF-CEM = test system: CCRF-CEM
TK-10 = test system: TK-10
SR = test system: SR
XF498 = test system: XF498
LOX IMVI = test system: LOX IMVI

Nc1c(-c2ccc(Br)cc2)[n+]([O-])c2ccccc2[n+]1[O-]
GI50 (NCI-H522): 52.6 µM (inactive)
GI50 (OVCAR-5): > 100 µM (inactive)
GI50 (A549): 92 µM (inactive)
GI50 (HOP-92): > 100 µM (inactive)
GI50 (HCT-116): > 100 µM (inactive)
GI50 (EKVX): > 100 µM (inactive)
GI50 (OVCAR-4): > 100 µM (inactive)
GI50 (HL-60): 82.4 µM (inactive)
GI50 (U-251): 78.2 µM (inactive)
GI50 (OVCAR-8): > 100 µM (inactive)
GI50 (DMS-114): 50.9 µM (inactive)
GI50 (HOP-62): > 100 µM (inactive)
GI50 (MOLT-4): 39.2 µM (inactive)
GI50 (NCI-H23): > 100 µM (inactive)
GI50 (ACHN): > 100 µM (inactive)
GI50 (SK-MEL-2): > 100 µM (inactive)
GI50 (SN12C): > 100 µM (inactive)
GI50 (RPMI-8226): 27.9 µM (inactive)
GI50 (SF-539): > 100 µM (inactive)
GI50 (SNB-19): > 100 µM (inactive)
GI50 (UACC-257): > 100 µM (inactive)
GI50 (K562): 64.9 µM (inactive)
GI50 (Malme-3M): > 100 µM (inactive)
GI50 (OVCAR-3): 92 µM (inactive)
GI50 (KM12): > 100 µM (inactive)
GI50 (SK-MEL-28): > 100 µM (inactive)
GI50 (KM-20L2): > 100 µM (inactive)
GI50 (DMS-273): > 100 µM (inactive)
GI50 (HOP-18): > 100 µM (inactive)
GI50 (COLO 205): > 100 µM (inactive)
GI50 (HT-29): > 100 µM (inactive)
GI50 (SW-620): > 100 µM (inactive)
GI50 (CAKI-1): > 100 µM (inactive)
GI50 (UO-31): 38.6 µM (inactive)
GI50 (SK-MEL-5): > 100 µM (inactive)
GI50 (786-0): > 100 µM (inactive)
GI50 (LXFL 529): > 100 µM (inactive)
GI50 (DLD-1): > 100 µM (inactive)
GI50 (SF-268): > 100 µM (inactive)
GI50 (M14): > 100 µM (inactive)
GI50 (SK-OV-3): > 100 µM (inactive)
GI50 (RXF 631): > 100 µM (inactive)
GI50 (SF-295): > 100 µM (inactive)
GI50 (NCI-H226): > 100 µM (inactive)
GI50 (SNB-75): 81.3 µM (inactive)
GI50 (IGROV-1): > 100 µM (inactive)
GI50 (NCI-H460): > 100 µM (inactive)
GI50 (HCT-15): > 100 µM
GI50 (A498): > 100 µM (inactive)
GI50 (SNB-78): > 100 µM (inactive)

N#CC1C(C#N)C2(c3ccccc3)C(c3ccccc3)=NN(c3ccccc3)CC12 (configuration not stated)
GI50 (M19-MEL): > 100 µM (inactive)
GI50 (OVCAR-5): > 100 µM (inactive)
GI50 (A549): > 100 µM (inactive)
GI50 (HCT-116): > 100 µM (inactive)
GI50 (EKVX): > 100 µM (inactive)
GI50 (OVCAR-4): 95.3 µM (inactive)
GI50 (HL-60): > 100 µM (inactive)
GI50 (U-251): > 100 µM (inactive)
GI50 (OVCAR-8): > 100 µM (inactive)
GI50 (DMS-114): 59.4 µM (inactive)
GI50 (RXF 393): > 100 µM (inactive)
GI50 (MOLT-4): 16.8 µM (inactive)
GI50 (UACC-62): 94.8 µM (inactive)
GI50 (ACHN): > 100 µM (inactive)
GI50 (SK-MEL-2): > 100 µM (inactive)
GI50 (SN12C): > 100 µM (inactive)
GI50 (RPMI-8226): > 100 µM (inactive)
GI50 (SF-539): > 100 µM (inactive)
GI50 (SNB-19): > 100 µM (inactive)
GI50 (UACC-257): > 100 µM (inactive)
GI50 (K562): > 100 µM (inactive)
GI50 (Malme-3M): > 100 µM (inactive)
GI50 (OVCAR-3): > 100 µM (inactive)
GI50 (KM12): > 100 µM (inactive)
GI50 (SK-MEL-28): > 100 µM (inactive)
GI50 (KM-20L2): > 100 µM (inactive)
GI50 (DMS-273): > 100 µM (inactive)
GI50 (HOP-18): > 100 µM (inactive)
GI50 (HCC 2998): > 100 µM (inactive)
GI50 (SW-620): > 100 µM (inactive)
GI50 (CCRF-CEM): > 100 µM (inactive)
GI50 (CAKI-1): > 100 µM (inactive)
GI50 (UO-31): > 100 µM (inactive)
GI50 (SK-MEL-5): > 100 µM (inactive)
GI50 (TK-10): > 100 µM (inactive)
GI50 (SR): > 100 µM (inactive)
GI50 (786-0): > 100 µM (inactive)
GI50 (XF498): > 100 µM (inactive)
GI50 (LXFL 529): > 100 µM (inactive)
GI50 (DLD-1): > 100 µM (inactive)
GI50 (M14): > 100 µM (inactive)
GI50 (LOX IMVI): > 100 µM (inactive)
GI50 (SF-295): > 100 µM (inactive)
GI50 (NCI-H226): > 100 µM (inactive)
GI50 (SNB-75): 36.4 µM (inactive)
GI50 (IGROV-1): > 100 µM (inactive)
GI50 (NCI-H460): > 100 µM (inactive)
GI50 (HCT-15): > 100 µM
GI50 (A498): > 100 µM (inactive)
GI50 (SNB-78): > 100 µM (inactive)

O=C(OCC1CO1)c1cccs1 (configuration not stated)
GI50 (M19-MEL): > 100 µM (inactive)
GI50 (NCI-H522): 17 µM (inactive)
GI50 (OVCAR-5): > 100 µM (inactive)
GI50 (A549): > 100 µM (inactive)
GI50 (HOP-92): 65.6 µM (inactive)
GI50 (EKVX): > 100 µM (inactive)
GI50 (OVCAR-4): > 100 µM (inactive)
GI50 (HL-60): > 100 µM (inactive)
GI50 (OVCAR-8): > 100 µM (inactive)
GI50 (DMS-114): > 100 µM (inactive)
GI50 (HOP-62): > 100 µM (inactive)
GI50 (RXF 393): > 100 µM (inactive)
GI50 (MOLT-4): > 100 µM (inactive)
GI50 (UACC-62): > 100 µM (inactive)
GI50 (NCI-H23): > 100 µM (inactive)
GI50 (ACHN): > 100 µM (inactive)
GI50 (SK-MEL-2): > 100 µM (inactive)
GI50 (SN12C): > 100 µM (inactive)
GI50 (RPMI-8226): > 100 µM (inactive)
GI50 (SNB-19): > 100 µM (inactive)
GI50 (UACC-257): > 100 µM (inactive)
GI50 (K562): > 100 µM (inactive)
GI50 (Malme-3M): > 100 µM (inactive)
GI50 (OVCAR-3): > 100 µM (inactive)
GI50 (KM12): > 100 µM (inactive)
GI50 (SK-MEL-28): > 100 µM (inactive)
GI50 (KM-20L2): > 100 µM (inactive)
GI50 (DMS-273): > 100 µM (inactive)
GI50 (COLO 205): > 100 µM (inactive)
GI50 (HT-29): > 100 µM (inactive)
GI50 (HCC 2998): > 100 µM (inactive)
GI50 (SW-620): > 100 µM (inactive)
GI50 (CCRF-CEM): > 100 µM (inactive)
GI50 (CAKI-1): > 100 µM (inactive)
GI50 (UO-31): > 100 µM (inactive)
GI50 (SK-MEL-5): > 100 µM (inactive)
GI50 (TK-10): > 100 µM (inactive)
GI50 (786-0): > 100 µM (inactive)
GI50 (XF498): > 100 µM (inactive)
GI50 (LXFL 529): > 100 µM (inactive)
GI50 (DLD-1): > 100 µM (inactive)
GI50 (SF-268): > 100 µM (inactive)
GI50 (M14): > 100 µM (inactive)
GI50 (SK-OV-3): > 100 µM (inactive)
GI50 (LOX IMVI): > 100 µM (inactive)
GI50 (RXF 631): > 100 µM (inactive)
GI50 (SF-295): > 100 µM (inactive)
GI50 (SNB-75): 37 µM (inactive)
GI50 (IGROV-1): > 100 µM (inactive)
GI50 (NCI-H460): > 100 µM (inactive)
GI50 (HCT-15): > 100 µM
GI50 (SNB-78): > 100 µM (inactive)
